In patent US11267809B2, “BAF complex modulating compounds and methods of using the same” (THE BOARD OF TRUSTEES OF THE LELAND STANFORD JUNIOR …, priority 2017, dated 2022):
pIC50: −log10 of the molar value. Where two headings read alike, the source gives them in different places.

Key:
HCT116 cells [1] = assay: Synergy viability assay (CellTitre blue, 5 days), HCT116 ARID1A(+/+); type: cell-based, human; settings: for average combination index (CI) of putative inhibitor: with VE-821 (1-30 uM) and putative inhibitor (1-30 uM); for average combination index (CI) of putative inhibitor / average combination index (CI) of TOP2 inhibitor / pIC50: 5 days; for average combination index (CI) of TOP2 inhibitor: with VE-821, ARID1A(+/+); for pIC50: Homo sapiens, HCT-116, 120 h, read-out: VE-821 IC50 in combination with BAFi
Experimental: To assess drug synergy, the Chou-Talalay method was employed to provide a mechanism-independent method to quantify the synergism of drug interactions. This method combines elements of the Scatchard, Michaelis-menten, Hill, and Henderson-Hasslebalch equations through the law of mass-action^31,32 to generate a quantifiable assessment of synergy. Molecules were tested both independently and then in 25 different combinations in HCT116 cells for 5 days as described above. To determine a combination index (CI), median-effect equations of the two respective molecules were determined from their respective dose responses. The median-effect equation was used to calculate a median-effect dose, and (Dx)ATRi,BAFi values which correspond for the respective doses of the BAFi and ATRi compounds and correlate with a given percentage of cells affected by the individual treatments. Normalized index values (IATRi, IBAFi), and the combination index are a ratio between the treatment dose, and the Dx for a given fraction of affected cells. Combination indices less than 0.9 are considered synergistic, while values ranging from 0.9 to 1.1 are additive, and CIs above 1.1 are antagonistic.
(§1) Viability assays were performed in 384-well plates. Cells were plated at 500 cells/well. Each drug was administered in 5-doses with 4 replicates per plate, and each 5×5 drug combination was administered with 8 replicates per plate, 24 hours after seeding. All error bars represent 4 or 8 technical replicates averaged over 3 independent experiments. Media containing fresh drug was replaced every 48 hours. After 5 days, cellular viability was measured using CellTitre blue, as described by the manufacturer.

[2] = system: HCT116 (ARID1A−/−) cell line; assay: Synergy viability assay, HCT116 ARID1A(-/-); type: cell-based, human; settings: for average combination index (CI) of TOP2 inhibitor: with VE-821, ARID1A(−/−), 5 days
Source text: (§2) SMARCA4, the primary target of our original screen, is present in both human BAF and PBAF complexes in cancer^12. PBAF complexes differ from BAF complexes by incorporation of specific subunits. Specifically, PBAF complexes contain ARID2 (as opposed to ARID1A/B), PHF10 (BAF45a) (as opposed to […] (BAF45d)), PBRM1, and lack the BAF-specific subunit SS18. PBAF specific subunits are also frequently mutated in cancer, specifically renal clear cell carcinomas and cholangiocarcinomas^33-36. To assess whether the lead compound is targeting BAF, PBAF complexes, or both, we constitutively knocked down ARID1A or ARID2 by lentiviral transduction of HCT116 cells and compared the BAFi/ATRi synergy to the wild-type (ARID1A+/+).
Isogenic HCT116 ARID1A(+/+) and ARID1A(−/−) cell lines were originally obtained from Horizon Discovery. MCF-7, Cal-51, A-704, and MDA-MB-436, MDA-MB-468, HCC1143, HCC1187, HCC1954, and ACHN cell lines were obtained from American Type […]. All cell lines were grown in McCoy's 5a Media supplemented with 10% FBS.
as §1

HCT116 cells [3] = settings: 5 days of treatment, before ARID1A deletion, read-out: IC50 of VE-821; cited from earlier work
[4] = system: HCT116 cells infected with shRNA lentivirus targeting ARID1A; assay: Synergy viability assay, HCT116 with shARID1A knockdown; type: cell-based, human; settings: single agent, 5 continuous days
Source text: as §2, with “(ARID1A+/+). […] Further, upon knockdown of ARID1A or ARID2 (FIG. 3b), the synergistic effect observed between Baficillin1 and VE-821 was ablated upon loss of ARID1A (FIG. 3e) (CIshARID1A=1.48±0.14), but not loss of shARID2 (CIshARID2=0.42±0.04) (FIG. 3c-e).” for “(ARID1A+/+).”
as §1
Lentiviruses were produced in Lenti-X 293T cells (Clonetech) via spinfection with polyethylenimine transfection. 293T-x cells were transfected with PEI (Polysciences Inc., 24765) with lentiviral PLKO shARID1A or GIPZ shARID2 knockdown vectors, co-transfected with packaging vectors pspax2 and pMD2.G as previously described^49. PLKO shRNA construct targeting ARID1A (TRCN0000059090: shRNA-2) was obtained^50 and GIPZ Human ARID2 shRNA was purchased from Dharmacon (CloneId:V2LHS_74399). […]

[5] = system: HCT116 cells, ARID1A deleted; settings: HCT116 cells upon deletion of ARID1A, 5 days of treatment; read-out: IC50 of VE-821; cited from earlier work

CCc1nc(N)nc(N)c1-c1ccc(Cl)cc1 [Chloroidine, Pyrimethamine]
average combination index (CI) of putative inhibitor (HCT116 cells [1]): 1.3±0.18

COc1cccc2c1C(=O)c1c(O)c3c(c(O)c1C2=O)C[C@@](O)(C(=O)CO)C[C@@H]3O[C@H]1C[C@H](N)[C@H](O)[C@H](C)O1 [Doxorubicin]
average combination index (CI) of TOP2 inhibitor [2]: 0.95±0.06 | average combination index (CI) of TOP2 inhibitor (HCT116 cells [1]): 0.87±0.07

COc1ccc2c(C)nc(Nc3nc(C)c(C)c(=O)[nH]3)nc2c1 [Madrasin]
average combination index (CI) of putative inhibitor (HCT116 cells [1]): 1.4±0.04

O=C(/C=C/N1C[C@H]2C[C@@H]1CN2c1ccccn1)c1ccccc1O [PFI-3]
individual dose-response or synergy with VE-821 ([2]; ARID1A(−/−) condition): no measurable individual dose-response or synergy effects | individual dose-response or synergy with VE-821 (HCT116 cells [1]; ARID1A(+/+) condition, as treated in FIG. 4c): no measurable individual dose-response or synergy effects

CS(=O)(=O)c1ccc(-c2cnc(N)c(C(=O)Nc3ccccc3)n2)cc1 [VE-821]
sensitivity (cell survival) compared to wild-type HCT116 ([2]; single agent, 5 continuous days): increased sensitivity | pIC50 (HCT116 cells [3]): ~5.00 | sensitivity (cell survival) compared to wild-type HCT116 [4]: increased sensitivity | pIC50 [5]: ~6.00 | pIC50 (HCT116 cells [1]; highest dose of BAFi (Baficillin1) tested in combination): ~6.00 | pIC50 (HCT116 cells [1]; lowest dose of BAFi (Baficillin1) 1.25 uM): ~5.40

CC(Oc1ccc(Oc2cnc3ccc(Cl)cc3n2)cc1)C(=O)O (stereo not shown) [XK469]
average combination index (CI) of TOP2 inhibitor [2]: 0.85±0.09 | average combination index (CI) of TOP2 inhibitor (HCT116 cells [1]): 0.75±0.05

ICRF-193
average combination index (CI) of TOP2 inhibitor [2]: 0.82±0.08 | average combination index (CI) of TOP2 inhibitor (HCT116 cells [1]): 1.0±0.05
